# Data reported in patent US9850225B2, “Compounds useful as immunomodulators” (BRISTOL-MYERS SQUIBB COMPANY, priority 2014, dated 2017).
# Where a name gives a salt, the structure may show the parent alone.
# Molecular target: PD-1/PD-L1 interaction (PD-1-Ig / PD-L1-His) (Homo sapiens (Human), UniProt Q9NZQ7)
# Experiment: PD-1/PD-L1 Homogenous Time-Resolved Fluorescence (HTRF) binding assay
# Settings: PD-1/PD-L1 HTRF binding assay; numeric value; read-out: Range or IC50
# Method in brief: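 Human PD-L1-His (10 nM final) was pre-incubated with inhibitor for 15 min, then PD-1-Ig (20 nM final) was added for a further 15 min in dPBS with 0.1% BSA and 0.05% Tween-20. Binding was detected by HTRF using Eu-cryptate anti-Ig (1 nM) and APC anti-His (20 nM).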
# Sequence of PD-1/PD-L1 interaction (PD-1-Ig / PD-L1-His) (Q9NZQ7 other isoform, or with tags, fused parts or gaps): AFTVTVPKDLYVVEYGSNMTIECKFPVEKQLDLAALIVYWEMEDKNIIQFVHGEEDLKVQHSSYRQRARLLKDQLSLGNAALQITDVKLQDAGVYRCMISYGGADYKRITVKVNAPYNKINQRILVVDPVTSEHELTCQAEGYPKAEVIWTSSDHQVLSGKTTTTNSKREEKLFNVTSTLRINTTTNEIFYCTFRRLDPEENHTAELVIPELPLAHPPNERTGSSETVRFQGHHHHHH
row,IC50 [nM],SMILES
1,149,"Cc1c(COc2ccc(CN[C@](C)(CO)C(=O)O)c(OCc3cccc(C#N)c3)c2Cl)cccc1-c1ccc2c(c1)OCCO2 [Example 1239, (R)-2-((3-chloro-2-((3-cyanobenzyl)oxy)-4-((3-(2,3-dihydrobenzo[b][1,4]dioxin-6-yl)-2-methylbenzyl)oxy)benzyl)amino)-3-hydroxy-2-methylpropanoic acid]"
2,1.19,"Cc1c(COc2cc(OCc3cncc(C#N)c3)c(CNC[C@@H](O)CC(=O)O)cc2Cl)cccc1-c1ccc2c(c1)OCCO2 [Example 1250, (S)-4-((5-chloro-2-((5-cyanopyridin-3-yl)methoxy)-4-((3-(2,3-dihydrobenzo[b][1,4]dioxin-6-yl)-2-methylbenzyl)oxy)benzyl)amino)-3-hydroxybutanoic acid]"

# Same assay, conditions: PD-1/PD-L1 HTRF binding assay; value given as range class; read-out: Range or IC50
row,SMILES,IC50 [nM]
1,"Cc1c(COc2ccc(CN[C@H](CO)C(=O)O)c(OCc3cccc(C#N)c3)c2Cl)cccc1-c1ccccc1 [Example 1231, (R)-2-((3-chloro-2-((3-cyanobenzyl)oxy)-4-((2-methyl-[1,1′-biphenyl]-3-yl)methoxy)benzyl)amino)-3-hydroxypropanoic acid]",100 to 20000
2,"Cc1c(COc2ccc(CNC[C@@H](O)CC(=O)O)c(OCc3cccc(C#N)c3)c2Cl)cccc1-c1ccccc1 [Example 1232, (S)-4-((3-chloro-2-((3-cyanobenzyl)oxy)-4-((2-methyl-[1,1′-biphenyl]-3-yl)methoxy)benzyl)amino)-3-hydroxybutanoic acid]",100 to 20000
3,"CC(=O)NCCNCc1ccc(OCc2cccc(-c3ccccc3)c2C)c(Cl)c1OCc1cccc(C#N)c1 [Example 1234, N-(2-(3-chloro-2-(3-cyanobenzyloxy)-4-((2-methylbiphenyl-3-yl)methoxy)benzylamino)ethyl)acetamide]",100 to 20000
4,"C[C@](CO)(NCc1cc(Cl)c(OCc2cccc(-c3ccc4c(c3)OCCO4)c2C#N)cc1OCc1cccc(C#N)c1)C(=O)O [Example 1241, (R)-2-((5-chloro-4-((2-cyano-3-(2,3-dihydrobenzo[b][1,4]dioxin-6-yl)benzyl)oxy)-2-((3-cyanobenzyl)oxy)benzyl)amino)-3-hydroxy-2-methylpropanoic acid]",0.6 to 10
5,"N#Cc1cccc(COc2cc(OCc3cccc(-c4ccc5c(c4)OCCO5)c3C#N)c(Cl)cc2CN[C@H](CO)C(=O)O)c1 [Example 1242, (R)-2-((5-chloro-4-((2-cyano-3-(2,3-dihydrobenzo[b][1,4]dioxin-6-yl)benzyl)oxy)-2-((3-cyanobenzyl)oxy)benzyl)amino)-3-hydroxypropanoic acid]",0.6 to 10
6,"Cc1c(COc2cc(OCc3cccc(C#N)c3)c(CNC3(C(=O)O)COC3)cc2Cl)cccc1-c1ccc2c(c1)OCCO2 [Example 1243, 3-((5-chloro-2-((3-cyanobenzyl)oxy)-4-((3-(2,3-dihydrobenzo[b][1,4]dioxin-6-yl)-2-methylbenzyl)oxy)benzyl)amino)oxetane-3-carboxylic acid]",10 to 100
7,"Cc1c(COc2cc(OCc3cccc(C#N)c3)c(CN[C@@](C)(CO)C(=O)O)cc2Cl)cccc1-c1ccc2c(c1)OCCO2 [Example 1245, (S)-2-((5-chloro-2-((3-cyanobenzyl)oxy)-4-((3-(2,3-dihydrobenzo[b][1,4]dioxin-6-yl)-2-methylbenzyl)oxy)benzyl)amino)-3-hydroxy-2-methylpropanoic acid]",0.6 to 10
8,"Cc1c(COc2cc(OCc3cccc(C#N)c3)c(CNC[C@@H](O)CC(=O)O)cc2Cl)cccc1-c1ccc2c(c1)OCCO2 [Example 1246, (S)-4-((5-chloro-2-((3-cyanobenzyl)oxy)-4-((3-(2,3-dihydrobenzo[b][1,4]dioxin-6-yl)-2-methylbenzyl)oxy)benzyl)amino)-3-hydroxybutanoic acid]",0.6 to 10
9,"CC(=O)NCCNCc1cc(Cl)c(OCc2cccc(-c3ccc4c(c3)OCCO4)c2C)cc1OCc1cccc(C#N)c1 [Example 1247, N-(2-((5-chloro-2-((3-cyanobenzyl)oxy)-4-((3-(2,3-dihydrobenzo[b][1,4]dioxin-6-yl)-2-methylbenzyl)oxy)benzyl)amino)ethyl)acetamide]",0.6 to 10
10,"Cc1c(COc2cc(OCc3cncc(C#N)c3)c(CN[C@](C)(CO)C(=O)O)cc2Cl)cccc1-c1ccc2c(c1)OCCO2 [Example 1248, (R)-2-((5-chloro-2-((5-cyanopyridin-3-yl)methoxy)-4-((3-(2,3-dihydrobenzo[b][1,4]dioxin-6-yl)-2-methylbenzyl)oxy)benzyl)amino)-3-hydroxy-2-methylpropanoic acid]",0.6 to 10
11,"Cc1c(COc2cc(OCc3cncc(C#N)c3)c(CN[C@H](CO)C(=O)O)cc2Cl)cccc1-c1ccc2c(c1)OCCO2 [Example 1249, (R)-2-((5-chloro-2-((5-cyanopyridin-3-yl)methoxy)-4-((3-(2,3-dihydrobenzo[b][1,4]dioxin-6-yl)-2-methylbenzyl)oxy)benzyl)amino)-3-hydroxypropanoic acid]",0.6 to 10
12,"CC(=O)NCCNCc1cc(Cl)c(OCc2cccc(-c3ccc4c(c3)OCCO4)c2C)cc1OCc1cncc(C#N)c1 [Example 1251, N-(2-((5-chloro-2-((5-cyanopyridin-3-yl)methoxy)-4-((3-(2,3-dihydrobenzo[b][1,4]dioxin-6-yl)-2-methylbenzyl)oxy)benzyl)amino)ethyl)acetamide]",0.6 to 10
13,"Cc1c(COc2cc(OCc3cncc(C#N)c3)c(CN[C@@](C)(CO)C(=O)O)cc2Cl)cccc1-c1ccc2c(c1)OCCO2 [Example 1252, (S)-2-(5-chloro-2-((5-cyanopyridin-3-yl)methoxy)-4-(3-(2,3-dihydrobenzo[b][1,4]dioxin-6-yl)-2-methylbenzyloxy)benzylamino)-3-hydroxy-2-methylpropanoic acid]",0.6 to 10
14,"Cc1c(COc2cc(OCc3cncc(Br)c3)c(CN[C@](C)(CO)C(=O)O)cc2Cl)cccc1-c1ccc2c(c1)OCCO2 [Example 1254, (R)-2-(2-((5-bromopyridin-3-yl)methoxy)-5-chloro-4-(3-(2,3-dihydrobenzo[b][1,4]dioxin-6-yl)-2-methylbenzyloxy)benzylamino)-3-hydroxy-2-methylpropanoic acid]",0.6 to 10
15,"CC(=O)NCCNCc1cc(Cl)c(OCc2cccc(-c3ccc4c(c3)OCCO4)c2C)cc1OCc1cncc(Br)c1 [Example 1255, N-(2-(2-((5-bromopyridin-3-yl)methoxy)-5-chloro-4-(3-(2,3-dihydrobenzo[b][1,4]dioxin-6-yl)-2-methylbenzyloxy)benzylamino)ethyl)acetamide]",0.6 to 10
16,"Cc1c(COc2cc(OCc3cncc(C#N)c3)c(CN3CCCC[C@H]3C(=O)NS(=O)(=O)N(C)C)cc2Cl)cccc1-c1ccc2c(c1)OCCO2 [Example 1257, (S)-1-(5-chloro-2-((5-cyanopyridin-3-yl)methoxy)-4-((3-(2,3-dihydrobenzo[b][1,4]dioxin-6-yl)-2-methylbenzyl)oxy)benzyl)-N—(N,N-dimethylsulfamoyl)piperidine-2-carboxamide]",10 to 100

# Results, then the compound that gave them:
row,IC50 [nM],SMILES
1,100 to 20000,"Cc1c(COc2ccc(CN3CCCC[C@H]3C(=O)O)c(OCc3cccc(C#N)c3)c2Cl)cccc1-c1ccccc1 [Example 1233, (S)-1-(3-chloro-2-(3-cyanobenzyloxy)-4-((2-methylbiphenyl-3-yl)methoxy)benzyl)piperidine-2-carboxylic acid]"
2,100 to 20000,"Cc1c(COc2ccc(CN[C@H](CO)C(=O)O)c(OCc3cccc(C#N)c3)c2Cl)cccc1-c1ccc2c(c1)OCCO2 [Example 1235, (R)-2-((3-chloro-2-((3-cyanobenzyl)oxy)-4-((3-(2,3-dihydrobenzo[b][1,4]dioxin-6-yl)-2-methylbenzyl)oxy)benzyl)amino)-3-hydroxypropanoic acid]"
3,100 to 20000,"Cc1c(COc2ccc(CN3CCCC[C@H]3C(=O)O)c(OCc3cccc(C#N)c3)c2Cl)cccc1-c1ccc2c(c1)OCCO2 [Example 1236, (S)-1-(3-chloro-2-(3-cyanobenzyloxy)-4-(3-(2,3-dihydrobenzo[b][1,4]dioxin-6-yl)-2-methylbenzyloxy)benzyl)piperidine-2-carboxylic acid]"
4,100 to 20000,"CC(=O)NCCNCc1ccc(OCc2cccc(-c3ccc4c(c3)OCCO4)c2C)c(Cl)c1OCc1cccc(C#N)c1 [Example 1237, N-(2-((3-chloro-2-((3-cyanobenzyl)oxy)-4-((3-(2,3-dihydrobenzo[b][1,4]dioxin-6-yl)-2-methylbenzyl)oxy)benzyl)amino)ethyl)acetamide]"
5,100 to 20000,"Cc1c(COc2ccc(CN[C@@](C)(CO)C(=O)O)c(OCc3cccc(C#N)c3)c2Cl)cccc1-c1ccc2c(c1)OCCO2 [Example 1238, (S)-2-((3-chloro-2-((3-cyanobenzyl)oxy)-4-((3-(2,3-dihydrobenzo[b][1,4]dioxin-6-yl)-2-methylbenzyl)oxy)benzyl)amino)-3-hydroxy-2-methylpropanoic acid]"
6,100 to 20000,"Cc1c(COc2ccc(CNC[C@@H](O)CC(=O)O)c(OCc3cccc(C#N)c3)c2Cl)cccc1-c1ccc2c(c1)OCCO2 [Example 1240, (S)-4-((3-chloro-2-((3-cyanobenzyl)oxy)-4-((3-(2,3-dihydrobenzo[b][1,4]dioxin-6-yl)-2-methylbenzyl)oxy)benzyl)amino)-3-hydroxybutanoic acid]"
7,0.6 to 10,"Cc1c(COc2cc(OCc3cncc(C#N)c3)c(CN3CCCC[C@H]3C(=O)O)cc2Cl)cccc1-c1ccc2c(c1)OCCO2 [Example 1253, (S)-1-(5-chloro-2-((5-cyanopyridin-3-yl)methoxy)-4-((3-(2,3-dihydrobenzo[b][1,4]dioxin-6-yl)-2-methylbenzyl)oxy)benzyl)piperidine-2-carboxylic acid, TFA salt]"
8,0.6 to 10,"Cc1c(COc2cc(OCc3cncc(C#N)c3)c(CN3CCCC[C@H]3C(=O)NS(C)(=O)=O)cc2Cl)cccc1-c1ccc2c(c1)OCCO2 [Example 1256, (S)-1-(5-chloro-2-((5-cyanopyridin-3-yl)methoxy)-4-((3-(2,3-dihydrobenzo[b][1,4]dioxin-6-yl)-2-methylbenzyl)oxy)benzyl)-N-(methylsulfonyl)piperidine-2-carboxamide]"
